Measured values reported in patent US10294234B2, “HIV inhibitor compounds” (priority 2017, dated 2019).
Like-named read-outs stand apart in the source and are kept apart here.

Tests used:
[1] = tested on: HIV-1 (IIIB) in MT-4 cells; assay: MT-4 HIV assay; assay type: cell-based
Summary of the method: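 Antiviral activity was read by Cell Titer Glo after a 5-day, 37 °C culture of MT-4 cells pre-infected with a 1:250 dilution of HIV-1 (IIIB). Compounds were tested as threefold dilution series in complete RPMI. Controls were no drug, mock infection and 5 uM AZT.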

[2] = Summary of the method: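 Each compound (1 uM) is incubated in duplicate with 0.5 mg/mL liver microsomal protein from dog, rat or human plus NADPH-regenerating system. Samples taken at 2, 12, 25, 45 and 65 minutes are deproteinised and quantified by LC/MS/MS. Half-life gives Clint.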
[3] = human liver microsomes 0.5 mg/mL, 1 uM compound, NADPH
[4] = rat liver microsomes 0.5 mg/mL, 1 uM compound, NADPH
[5] = Human immunodeficiency virus 1, MT4, 120 h, HIV-1 (IIIB), MT-4 cells, 5 days, Cell Titer Glo, read-out: EC50

In the case of `COC(=O)N[C@H](C(=O)N[C@@H](Cc1ccc(C#Cc2cnc(N3CCNC(=O)C3)nc2)cc1)[C@@H](O)CN(Cc1c(F)cc(-c2ccn(C(F)F)n2)cc1F)NC(=O)[C@@H](NC(=O)OC)C(C)(C)C(F)(F)F)C(C)(C)C(F)(F)F` [Example 123, Methyl ((5S,8S,9S,14S)-11-(4-(1-(difluoromethyl)-1H-pyrazol-3-yl)-2,6-difluorobenzyl)-16,16,16-trifluoro-9-hydroxy-15,15-dimethyl-3,6,3-trioxo-8-(4-((2 (3-oxopiperazin-1-yl)pyrimidin-5-yl)ethynyl)benzyl)-5-(1,1,1-trifluoro-2-methylpropan-2-yl)-2-oxa-4,7,11,12-tetraazahexadecan-14-yl)carbamate], the EC50 ([1]; Human immunodeficiency virus 1, MT4, 120 h) is reported as 4.16 nM, the “Human Pred Cl.” value [2, 3] is reported as under 0.11 L/H/kg and the “Rat. Pred. Cl.” value [2, 4] is reported as under 0.18 L/H/kg.
For `COCCN1C2CCC1CN(c1ccc(C#Cc3ccc(C[C@H](NC(=O)[C@@H](NC(=O)OC)C(C)(C)C(F)(F)F)[C@@H](O)CN(Cc4c(F)cc(-c5ccn(C(F)F)n5)cc4F)NC(=O)[C@@H](NC(=O)OC)C(C)(C)C(F)(F)F)cc3)cn1)C2` [Example 124, Methyl ((5S,8S,9S,14S)-11-(4-(1-(difluoromethyl)-1H-pyrazol-3-yl)-2,6-difluorobenzyl)-16,16,16-trifluoro-9-hydroxy-8-(4-((6-(8-(2-methoxyethyl)-3,8-diazabicyclo[3.2.1]octan-3-yl)pyridin-3-yl)ethynyl)benzyl)-15,15-dimethyl-3,6,13-trioxo-5-(1,1,1-trifluoro-2-methylpropan-2-yl)-2-oxa-4,7,11,12-tetraazahexadecan-14-yl)carbamate], the EC50 [1, 5] was 6.32 nM, the “Human Pred Cl.” value ([2]; human, microsomes) was under 0.11 L/H/kg and the “Rat. Pred. Cl.” value ([2]; rat, microsomes) was 0.5 L/H/kg.
For `COC(=O)N[C@H](C(=O)N[C@@H](Cc1ccc(C#Cc2ccc(N3CC4CCC(C3)N4C3COC3)nc2)cc1)[C@@H](O)CN(Cc1c(F)cc(-c2cc[nH]n2)cc1F)NC(=O)[C@@H](NC(=O)OC)C(C)(C)C(F)(F)F)C(C)(C)C(F)(F)F` [Example 126, Methyl ((5S,8S,9S,14S)-11-(2,6-difluoro-4-(1H-pyrazol-3-yl)benzyl)-16,16,16-trifluoro-9-hydroxy-15,15-dimethyl-8-(4-((6-(8-(oxetan-3-yl)-3,8-diazabicyclo[3.2.1]octan-3-yl)pyridin-3-yl)ethynyl)benzyl)-3,6,13-trioxo-5-(1,1,1-trifluoro-2-methylpropan-2-yl)-2-oxa-4,7,11,12-tetraazahexadecan-14-yl)carbamate], the EC50 [1, 5] was 4.13 nM, the “Human Pred Cl.” value ([2]; human, microsomes) was 0.45 L/H/kg and the “Rat. Pred. Cl.” value ([2]; rat, microsomes) was under 0.18 L/H/kg.
With `COC(=O)N[C@H](C(=O)N[C@@H](Cc1ccc(C#Cc2ccc(N3CC4CCC(C3)N4C3COC3)nc2)cc1)[C@@H](O)CN(Cc1c(F)cc(-c2cc(OC3COC3)ccn2)cc1F)NC(=O)[C@@H](NC(=O)OC)C(C)(C)C(F)(F)F)C(C)(C)C(F)(F)F` [Example 127, Methyl ((5S,8S,9S,14S)-11-(2,6-difluoro-4-(4-(oxetan-3-yloxy)pyridin-2-yl)benzyl)-16,16,16-trifluoro-9-hydroxy-15,15-dimethyl-8-(4-((6-(8-(oxetan-3-yl)-3,8-diazabicyclo[3.2.1]octan-3-yl)pyridin-3-yl)ethynyl)benzyl)-3,6,13-trioxo-5-(1,1,1-trifluoro-2-methylpropan-2-yl)-2-oxa-4,7,11,12-tetraazahexadecan-14-yl)carbamate] the EC50 [1, 5] was 4.19 nM, the “Human Pred Cl.” value ([2]; human, microsomes) was 0.54 L/H/kg and the “Rat. Pred. Cl.” value ([2]; rat, microsomes) was 1.3 L/H/kg.
In the case of `COC(=O)N[C@H](C(=O)N[C@@H](Cc1ccc(C#Cc2ccc(N3CC4CCC(C3)N4C3COC3)nc2)cc1)[C@@H](O)CN(Cc1c(F)cc(-c2nnc(C3CC3)o2)cc1F)NC(=O)[C@@H](NC(=O)OC)C(C)(C)C(F)(F)F)C(C)(C)C(F)(F)F` [Example 129, Methyl ((5S,8S,9S,14S)-11-(4-(5-cyclopropyl-1,3,4-oxadiazol-2-yl)-2,6-difluorobenzyl)-16,16,16-trifluoro-9-hydroxy-15,15-dimethyl-8-(4-((6-(8-(oxetan-3-yl)-3,8-diazabicyclo[3.2.1]octan-3-yl)pyridin-3-yl)ethynyl)benzyl)-3,6,13-trioxo-5-(1,1,1-trifluoro-2-methylpropan-2-yl)-2-oxa-4,7,11,12-tetraazahexadecan-14-yl)carbamate], the EC50 [1, 5] is reported as 3.62 nM and the “Human Pred Cl.” value ([2]; human, microsomes) is reported as under 0.11 L/H/kg.
In the case of `COC(=O)N[C@H](C(=O)NNC[C@H](O)[C@H](Cc1ccc(C#Cc2cnc(N3CC4CCC(C3)N4C3COC3)nc2)cc1)NC(=O)[C@@H](NC(=O)OCCc1c(F)cc(-c2cn(C34CC(C3)C4)nn2)cc1F)C(C)(C)C(F)(F)F)C(C)(C)C(F)(F)F` [Example 131, Methyl ((5S,8S,9S,14S)-1-(4-(1-(bicyclo[1.1.1]pentan-1-yl)-1H-1,2,3-triazol-4-yl)-2,6-difluorobenzyl)-16,16,16-trifluoro-9-hydroxy-15,15-dimethyl-8-(4-((2-(8-(oxetan-3-yl)-3,8-diazabicyclo[3.2.1]octan-3-yl)pyrimidin-5-yl)ethynyl)benzyl)-3,6,13-trioxo-5-(1,1,1-trifluoro-2-methylpropan-2-yl)-2-oxa-4,7,11,12-tetraazahexadecan-14-yl)carbamate], the EC50 [1, 5] is reported as 5.24 nM and the “Human Pred Cl.” value ([2]; human, microsomes) is reported as under 0.11 L/H/kg.
In the case of `COC(=O)N[C@H](C(=O)N[C@@H](Cc1ccc(C#Cc2cnc(N3CC4CCC(C3)N4C3COC3)nc2)cc1)[C@@H](O)CN(Cc1c(F)cc(-c2cn(C(F)F)cn2)cc1F)NC(=O)[C@@H](NC(=O)OC)C(C)(C)C(F)(F)F)C(C)(C)C(F)(F)F` [Example 133, Methyl ((5S,10S,11S,14S)-8-(4-(1-(difluoromethyl)-1H-imidazol-4-yl)-2,6-difluorobenzyl)-16,16,16-trifluoro-10-hydroxy-15,15-dimethyl-11-(4-((2-(8-(oxetan-3-yl)-3,8-diazabicyclo[3.2.]octan-3-yl)pyrimidin-5-yl)ethynyl)benzyl)-3,6,13-trioxo-5-(1,1,1-trifluoro-2-methylpropan-2-yl)-2-oxa-4,7,8,12-tetraazahexadecan-14-yl)carbamate], the EC50 ([1]; HIV-1 (IIIB), MT-4 cells, 5 days, Cell Titer Glo, read-out: EC50) is reported as 3.44 nM, the “Human Pred Cl.” value [2, 3] is reported as under 0.11 L/H/kg and the “Rat. Pred. Cl.” value [2, 4] is reported as under 0.18 L/H/kg.
In the case of `COC(=O)N[C@H](C(=O)N[C@@H](Cc1ccc(C#Cc2ccc(-c3cn4c(n3)CN(C)C(=O)C4)cc2)cc1)[C@@H](O)CN(Cc1c(F)cc(-c2ccn(C(F)F)n2)cc1F)NC(=O)[C@@H](NC(=O)OC)C(C)(C)C(F)(F)F)C(C)(C)C(F)(F)F` [Example 134, Methyl ((5S,8S,9S,14S)-11-(4-(1-(difluoromethyl)-1H-pyrazol-3-yl)-2,6-difluorobenzyl)-16,16,16-trifluoro-9-hydroxy-15,15-dimethyl-8-(4-((4-(7-methyl-6-oxo-5,6,7,8-tetrahydroimidazo[1,2-a]pyrazin-2-yl)phenyl)ethynyl)benzyl)-3,6,13-trioxo-5-(1,1,1-trifluoro-2-methylpropan-2-yl)-2-oxa-4,7,11,12-tetraazahexadecan-14-yl)carbamate], the EC50 [1, 5] is reported as 5.52 nM, the “Human Pred Cl.” value [2, 3] is reported as under 0.11 L/H/kg and the “Rat. Pred. Cl.” value [2, 4] is reported as under 0.18 L/H/kg.
